Test results reported in patent US12643893B2, “Heteroaryl-pyridinium compound and redox flow battery comprising the same” (Korea Advanced Institute of Science and Technology, priority 2021, dated 2026).

Legend:
[1] = Cyclic voltammetry (CV) in three-electrode cells; format: physicochemical; settings: for Peak to peak potential difference (ΔEp) / Ratio of anodic peak current (Ipa) to cathodic peak current (Ipc) (Ipa/Ipc) @50 mV s^−1: 1st event (or only value); for peak-to-peak potential difference (ΔEp): maintained for 100 CV cycles; for anodic-to-cathodic peak current ratio (Ipa/Ipc): preserved during 100 CV cycles
Method: All electrochemical examinations were carried out using a Biologic VMP3 electrochemical workstation in an Ar-filled glove box (MOTek, negligible O2 and H2O, tested by the ketyl solution).
Cyclic voltammetry (CV) was conducted in three-electrode cells comprised of glassy carbon (GC; diameter (d)=3 mm) as the working electrode (WE), a platinum wire as the counter electrode (CE), and a leak-free Ag/AgCl as the reference electrode (RE). The GC electrodes were polished using alumina slurry before testing (ALS Co., Ltd).
After CV analysis, ferrocene (Fc, ferrocene, 98%, Sigma-Aldrich) was added to the cell to measure its redox potential, and the measured sample potential was converted to the Fc/Fc^+.

[2] = Rotating disk electrode LSV, diffusion coefficient (Levich equation); format: physicochemical
Method: To measure diffusion coefficient (D), rotating disk electrode (RDE; ALS Co., Ltd) measurements were conducted with the same three-electrode cells. […] Limited mass-transport provides a current plateau (iL) of redox processes, which is linearly proportional to the square root of the rotating rates (ω^1/2). The diffusion coefficient (D) was calculated by plotting IL as a function of ω^1/2 and through the Levich equation (equation S1). iL=0.620nFAD^2/3ω^1/2η^−1/6Co (equation S1)
where IL is the limiting current (A cm^−2), n is the number of electrons transferred during the redox reaction, F is the Faraday's constant (96485 C mol^−1), A is the area of the electrode (0.0707 cm^2), D is the diffusion coefficient (cm^2 […]), ω is the angular rotation rate (rad s^−1), η is the kinematic viscosity (0.00442 cm^2 s^−1, referred to 0.1 M TBAPF6/MeCN), and Co is the concentration of the sample chemical.

[3] = Electron-transfer rate from CV curves (Nicholson method); format: physicochemical
Method: The electron-transfer rate (k^0) was calculated from CV curves and using the Nicholson method(equation S2).
where k^o is the electron-transfer constant (cm/s), D is the diffusion coefficient estimated from the above RDE studies, R is the gas constant (8.314 J K^−1 mol^−1), T is the temperature (298 K), v is the scan rate of the CVs (mV s^−1).
The Ψ value was obtained by Kingler and Kochi relation (equation S3).
where ΔEp is the peak-to-peak potential for the corresponding reduction or oxidation event.

[4] = Solubility test (UV-vis calibration curves, maximum solubility); settings: for solubility: organic solvent or mixture, thermodynamic from solid
[5] = after 100 cycles (in parentheses)
[6] = initial, 10 mM in 0.1 M TBABF4/MeCN
[7] = 1st redox event (or the only value given), 10 mM in 0.1 M TBABF4/MeCN
[8] = 1st event (single value for BTMAP-Fc), after 100 cycles (in parentheses)
[9] = 1st event (single value for BTMAP-Fc), initial
[10] = 1st redox event (single value for BTMAP-Fc), 4 mM in 0.1 M TBATFSI/MeCN
[11] = first redox event (single event for BTMAP-Fc), CV, 4 mM in 0.1 M TBATFSI/MeCN
[12] = c1, first cathodic event (single value for BTMAP-Fc, oxidation process)
[13] = 2nd event, after 100 cycles (in parentheses)

Row | SMILES | Peak to peak potential difference (ΔEp) [1, 5] | Ratio of anodic peak current (Ipa) to cathodic peak current (Ipc) (Ipa/Ipc) @50 mV s^−1 [1, 5] | Peak to peak potential difference (ΔEp) [1, 6] | Ratio of anodic peak current (Ipa) to cathodic peak current (Ipc) (Ipa/Ipc) @50 mV s^−1 [1, 6] | Formal potential (E^o′) [1, 7] | Ipa/Ipc @50 mV s^−1 [1, 8] | ΔEp [1, 8] | Ipa/Ipc @50 mV s^−1 [1, 9] | ΔEp [1, 9] | E^o′ [1, 10] | Formal potential (E^o′) [1, 11] [V vs. Fc/Fc^+] | peak-to-peak potential difference (ΔEp) [1] [mV] | anodic-to-cathodic peak current ratio (Ipa/Ipc) [1] | D (diffusion coefficient) [2, 12] | k^o (electron-transfer constant) [3, 12] | further results
1 | Cn1c(-c2cc[n+](C)cc2)nc2ccccc21 [BIP^+·BF4^−, 1-methyl-4-(1-methyl-1H-benzo[d]imidazol-2-yl)pyridin-1-ium tetrafluoroborate] | 99 (99) mV | 0.73 | 99 (99) mV | 0.71 | −1.41 V vs. Fc/Fc^+ | – | – | – | – | – | – | – | – | – | – | –
2 | C[n+]1ccc(-c2nc3ccccc3o2)cc1 [BOP^+·BF4^−, 4-(benzo[d]oxazol-2-yl)-1-methylpyridin-1-ium tetrafluoroborate] | 1st = 105 (105) mV | 0.46 | 1st = 105 (105) mV | 0.79 | 1st = −1.15 V vs. Fc/Fc^+ | – | – | – | – | – | – | – | – | – | – | –
3 | C[N+](C)(C)CCC[c-]1cccc1.C[N+](C)(C)CCC[c-]1cccc1.O=S(=O)([N-]S(=O)(=O)C(F)(F)F)C(F)(F)F.O=S(=O)([N-]S(=O)(=O)C(F)(F)F)C(F)(F)F.[Fe+2] [BTMAP-Fc·2TFSI^−, 1,1′-bis[3-(trimethylammonio)propyl]ferrocene dibis-trifluoromethanesulfonimidate, reference compound] | – | – | – | – | – | 1.03 (1.03) | 149 (149) mV | 1.03 (1.03) | 149 (149) mV | −0.03 V vs. Fc/Fc^+ | −0.03 | ~150 | about 1 | 2.00 X10^−6 cm^2 s^−1 | 0.034 cm/s | diffusion coefficient (D) ([2]; 0.1 M TBATFSI/MeCN): 2.0×10^−6 cm^2 s^−1; electron-transfer constant (k^o) ([3]; 0.1 M TBATFSI/MeCN): 0.034 cm/s
4 | C[n+]1ccc(-c2nc3ccccc3s2)cc1 [BTP^+·BF4^−, 4-(benzo[d]thiazol-2-yl)-1-methylpyridin-1-ium tetrafluoroborate] | – | – | – | – | – | – | – | – | – | – | – | – | – | – | – | solubility ([4]; 0.5 M TBABF4 in MeCN, maximum solubility in electrolyte solution, 0.5 M TBABF4/MeCN): 0.087 M; Solubility (M) 0.5M TBAPF6/MeCN ([4]; electrolyte solution, head prints 0.5M TBAPF6/MeCN): 0.087 M; Solubility (M) MeCN ([4]; in MeCN): 0.26 M; Solubility (M) in MeCN ([4]; in MeCN): 0.26 M; maximum solubility in MeCN ([4]; in MeCN): 260 mM
5 | C[n+]1ccc(-c2nc3ccccc3s2)cc1 [BTP^+·TFSI^−, 4-(benzo[d]thiazol-2-yl)-1-methylpyridin-1-ium bistriflimide] | – | – | – | – | – | (0.99) | 1st = 99 (99) mV | 1st = 1.01 | 1st = 99 (99) mV | 1st = −1.21 V vs. Fc/Fc^+ | −1.21 | ~99 | 1.01 | c1 = 3.71 X10^−6 cm^2 s^−1 | c1 = 0.086 cm s^−1 | Ipa/Ipc @50 mV s^−1 [1, 13]: (0.87); ΔEp [1, 13]: 84 mV; Ipa/Ipc @50 mV s^−1 ([1]; 2nd event, initial): 2nd = 0.95; ΔEp ([1]; 2nd event, initial): 93 mV; E^o′ ([1]; 2nd redox event, 4 mM in 0.1 M TBATFSI/MeCN): 2nd = −1.90 V vs. Fc/Fc^+; Formal potential (E^o′) ([1]; second redox event, CV, 4 mM in 0.1 M TBATFSI/MeCN): −1.90 V vs. Fc/Fc^+; D (diffusion coefficient) ([2]; c2, second cathodic event): c2 = 3.32 X10^−6 cm^2 s^−1; k^o (electron-transfer constant) ([3]; c2, second cathodic event): c2 = 0.090 cm s^−1; solubility ([4]; 0.5 M TBATFSI in MeCN, Solubility 0.5M TBATFSI/MeCN (M), electrolyte solution 0.5M TBATFSI/MeCN): 0.47 M; solubility ([4]; 0.5 M TBATFSI in MeCN, maximum solubility in electrolyte solution, 0.5 M TBATFSI/MeCN): 0.47 M; solubility ([4]; MeCN, Solubility MeCN (M), in MeCN): 1 M
6 | CCCCCCCCCC[n+]1ccc(-c2nc3ccccc3s2)cc1 [Dec-BTP^+·BF4^−, 4-(benzo[d]thiazol-2-yl)-1-decylpyridin-1-ium tetrafluoroborate] | 102 mV | 0.91 | 99 mV | 0.93 | 1st = −1.24 V vs. Fc/Fc^+ | – | – | – | – | – | – | – | – | – | – | Formal potential (E^o′) ([1]; 2nd redox event, 10 mM in 0.1 M TBABF4/MeCN): 2nd = −1.96 V vs. Fc/Fc^+; potential shift after CV cycles ([1]; FIG. 7): positive (+) potential shift; solubility ([4]; MeCN, Solubility (M) in MeCN, in MeCN): 0.07 M
